“Also recorded” adds a separate entry of the source. Non-standard residues stand in square brackets, D forms with d. Residues, ends and D or L forms follow the SMILES beside them. ξ: configuration not given here. *: point of attachment. Palmitoyl = CCCCCCCCCCCCCCCC(=O)*; Myristoyl = CCCCCCCCCCCCCC(=O)*; Lauroyl = CCCCCCCCCCCC(=O)*; Decanoyl = CCCCCCCCCC(=O)*; ξE = NC(CCC(=O)O)C(=O)O; ξD = NC(CC(=O)O)C(=O)O
Experiments:
[1] = Critical micelle concentration (CMC) by DPH fluorescence; format: physicochemical; details: 50 mM tris-HCl, pH 8.0
Protocol: FIG. 4 represents the fluorescence (%) of DPH (1,6-diphenyl-1,3,5-hexatriene) in the presence of increasing concentrations (0.0001 mM, 0.001 mM, 0.01 mM, 0.1 mM, 1 mM and 10 mM) of clips (compounds of the invention), exemplified with the compounds #3.7e (C13, points represented by squares) and 3.7f (C18, points represented by circles). The experiment is carried out in triplicates. In accordance with Chattopadhyay, A. & London, E ([22]), the CMC corresponds to the concentration at which the breakage in the slope is observed, here at 20 μM for 3.7f and 2 mM for 3.7e (black symbols).
Procedure. The molecules of the invention were prepared in a range of concentrations extending from 0.1 μM to 10 mM in 50 mM tris-HCl, pH 8.0 and neutralized at this pH. To 80 μl of each solution (triplicate), the same volume of 10 μM of 1,6-diphenyl-1,3,5-hexatriene (DPH, Sigma, D208000) is added, prepared at 100 μM in tetrahydrofuran then diluted 10-fold in H2O. The increase in the fluorescence of the DPH occurs when the latter find micelles of clips into which it can insert itself (Chattopadhyay, A. & London, E. Fluorimetric determination of critical micelle concentration avoiding interference from detergent charge. Anal Biochem 139, 408-412 (1984) ([22])). The fluorescence is read with a Xenius SAFAS fluorimeter by exciting at 358 nm and recording the fluorescence emission at 430 nm, with slits of 9 to 10 nm for the excitation and the emission and a gain of 100 to 150, depending on the cases.
Results. The CMC of the detergents is the concentration starting from which they associate with one another to form micelles, in which, in aqueous solution, the hydrophobic portions are grouped together at the center and the hydrophilic regions are exposed to the solvent. […] A typical result obtained with a compound 3.7 provided with a C13 (3.7e) or C18 ([…]) aliphatic chain is illustrated in FIG. 4.

[2] = molecular target: T1, BmrA (Bacillus subtilis, UniProt O06967); assay: Extraction of BmrA from membranes (SDS-PAGE of supernatant); set-up: species or system bacterial; overexpressed in E. coli C41DE3; details: detergent 10 g/l unless indicated otherwise; 2 h at 4° C.
T1 construct: His tag; made in house; host or cells: E. coli C41(DE3)
T1 sequence (O06967 whole entry): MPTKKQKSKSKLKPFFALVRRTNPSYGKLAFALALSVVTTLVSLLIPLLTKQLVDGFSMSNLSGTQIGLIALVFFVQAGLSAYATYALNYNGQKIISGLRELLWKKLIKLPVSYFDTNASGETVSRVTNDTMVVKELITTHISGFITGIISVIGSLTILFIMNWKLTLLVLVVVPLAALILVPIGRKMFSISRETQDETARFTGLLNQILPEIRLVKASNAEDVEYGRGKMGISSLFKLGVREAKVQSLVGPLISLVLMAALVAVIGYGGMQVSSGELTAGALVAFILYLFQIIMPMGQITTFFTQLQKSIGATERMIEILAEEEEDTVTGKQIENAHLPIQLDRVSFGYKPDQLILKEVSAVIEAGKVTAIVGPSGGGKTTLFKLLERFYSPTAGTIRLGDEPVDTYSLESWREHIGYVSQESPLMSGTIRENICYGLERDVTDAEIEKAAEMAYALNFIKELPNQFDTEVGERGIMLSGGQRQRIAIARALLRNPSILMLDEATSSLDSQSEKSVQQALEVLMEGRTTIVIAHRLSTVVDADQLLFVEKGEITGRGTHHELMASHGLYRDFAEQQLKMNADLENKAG
Protocol: (§1) FIG. 6 depicts the extraction of the membrane proteins BmrA (panels A and C) and AcrB (panels B and D) using commercial detergents and the molecules of the invention (panels A and B, from left to right): SDS, DDM, FC12, TX100, compounds of the invention 1.4, 1.5, 2.3a, 2.3b, 2.3c, 2.3d, 2.3e, 2.3f, 2.3g, 2.3h, 2.3i, 3.7a, 3.7b; panel C: compounds of the invention 3.7c 0.8%, 3.7d 0.16%, 3.7e 0.8%, 3.7f 0.3%, 3.7g 0.4%, 3.7h 0.2%, 3.7i 0.07%, 3.7j 0.09%, 3.7k, 3.7l, 0.25%, 3.9a, 4.5a, 4.5b, 4.5c, 4.5d 0.34%, 4.6a, 4.6b, 4.6c, 4.6d, 5.3a, 5.3b, 5.3c 0.3%, 5.3d 0.3%; panel D: 3.7c, 3.7d, 3.7e, 3.7f, 3.7h, 3.7i 0.1%, 3.7j, 3.7k, 3.7l, 3.9a, 4.5a, 4.5b, 4.5c, 4.5d, 4.6a, 4.6b, 4.6c, 4.6d. The detergents are added at 10 g/l (1%), unless indicated otherwise. The equivalent of 20 μg of proteins of the extracted fraction after centrifugation at 100 000×g for 30 min is deposited on 10% SDS-PAGE, stained with Coomassie blue after migration. BmrA migrates in its monomeric form to the level of the 55 kDa band; AcrB migrates in its monomeric form to the level of the 100 kDa band. SDS=sodium dodecyl sulfate; DDM=β-D-dodecyl maltoside; FC12=foscholine-12; TX100=triton X-100.
(§2) The extraction capacity of the detergents of the series is tested on membranes in which BmrA or AcrB are strongly expressed. The extraction with the clips (molecules of the invention) is compared to that obtained with commercial detergents, used as reference.
(§3) Procedure. BmrA represents 25% of the proteins present in the overexpression system used (E. coli, C41DE3). These membranes are prepared as described previously (Matar-Merheb, R. et al. ([11])). The membranes containing AcrB (approximately 20% of the membrane proteins, same expression system as BmrA) were prepared as described previously (Seeger, M. A. et al. ([21])). The detergents are used at 10 g/l unless indicated otherwise, and the proteins diluted at 2 g/l in a 20 mM Tris-HCl buffer, pH 8.0, 100 mM NaCl, 15% glycerol, with protease inhibitors (Roche) added thereto at an amount of one tablet/100 ml. The mixture (T) is incubated for 2 h at 4° C. then centrifuged for 1 h at 4° C. at 100 000×g in order to separate the extracted fraction (supernatant, S) from that which is not extracted (pellet). The supernatants are deposited on 10% SDS-PAGE and stained with Coomassie blue after migration. The foscholine 12, DDM and LMNG originate from Anatrace, the SDS and Triton X100 originate from Sigma-Aldrich.

[3] = molecular target: T2, AcrB (Escherichia coli, UniProt P31224); assay: Extraction of AcrB from membranes (SDS-PAGE of supernatant); set-up: species or system bacterial; same expression system (E. coli C41DE3); details: for extraction of AcrB: detergent 10 g/l unless indicated otherwise, 2 h at 4° C.; for selective extraction AcrB versus BmrA: comparison of extraction of AcrB and BmrA
T2 construct: made in house; host or cells: E. coli C41(DE3)
T2 sequence (P31224 whole entry): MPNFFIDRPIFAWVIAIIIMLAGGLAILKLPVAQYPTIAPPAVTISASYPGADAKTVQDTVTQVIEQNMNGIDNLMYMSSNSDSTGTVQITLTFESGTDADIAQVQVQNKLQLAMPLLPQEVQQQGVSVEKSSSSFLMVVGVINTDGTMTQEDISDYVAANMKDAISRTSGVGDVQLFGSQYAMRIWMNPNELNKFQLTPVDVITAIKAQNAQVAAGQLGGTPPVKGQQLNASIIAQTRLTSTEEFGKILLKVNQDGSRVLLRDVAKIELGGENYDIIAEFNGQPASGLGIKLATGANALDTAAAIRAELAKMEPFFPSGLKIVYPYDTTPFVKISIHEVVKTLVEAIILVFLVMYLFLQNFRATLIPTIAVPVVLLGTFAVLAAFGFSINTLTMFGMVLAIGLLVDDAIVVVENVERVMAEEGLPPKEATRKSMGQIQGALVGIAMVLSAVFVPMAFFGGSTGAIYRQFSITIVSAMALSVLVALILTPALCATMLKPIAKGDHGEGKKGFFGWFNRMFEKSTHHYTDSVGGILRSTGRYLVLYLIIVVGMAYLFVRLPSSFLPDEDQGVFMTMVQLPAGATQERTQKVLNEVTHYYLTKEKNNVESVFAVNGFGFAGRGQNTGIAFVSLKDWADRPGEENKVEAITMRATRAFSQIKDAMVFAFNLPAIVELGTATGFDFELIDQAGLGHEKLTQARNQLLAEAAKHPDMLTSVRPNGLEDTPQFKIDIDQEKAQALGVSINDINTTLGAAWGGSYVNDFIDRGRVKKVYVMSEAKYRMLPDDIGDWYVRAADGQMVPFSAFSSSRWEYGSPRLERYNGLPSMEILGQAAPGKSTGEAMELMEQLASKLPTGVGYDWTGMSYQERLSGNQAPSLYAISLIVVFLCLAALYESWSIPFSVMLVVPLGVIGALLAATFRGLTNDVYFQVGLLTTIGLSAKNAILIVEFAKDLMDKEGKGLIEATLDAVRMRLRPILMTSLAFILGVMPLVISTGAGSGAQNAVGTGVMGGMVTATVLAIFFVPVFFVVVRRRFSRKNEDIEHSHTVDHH
Protocol: as §1, §2, §3

| Molecule | CMC [1] [mM] | extraction of BmrA [2] | extraction of AcrB [3] | selective extraction AcrB versus BmrA [3] |
| --- | --- | --- | --- | --- |
| CCCCCCCCCCCCCCCC(=O)N[C@@H](CO)C(=O)N[C@H](CCC(=O)O)C(=O)O [Compound 2.3h] (HELM PEPTIDE1{[CCCCCCCCCCCCCCCC(=O)[*:2]].S.[dE]}$$$$V2.0) | 0.5 | extracting | extracting | – |
| CCCCCCCCCC(=O)N[C@@H](CO)C(=O)N[C@H](CCC(=O)O)C(=O)O [Compound 2.3d] (HELM PEPTIDE1{[CCCCCCCCCC(=O)[*:2]].S.[dE]}$$$$V2.0) | 2 | extracting | extracting | – |
| CCCCCCCCC(=O)N[C@@H](CO)C(=O)N[C@H](CCC(=O)O)C(=O)O [Compound 2.3c] (HELM PEPTIDE1{[CCCCCCCCC(=O)[*:2]].S.[dE]}$$$$V2.0) | 3.5 | non-extracting | extracting | – |
| O=C(O)CC[C@@H](NC(=O)[C@H](COCc1cn(CCO[C@@H]2OC(CO)[C@@H](O)C(O)C2O)nn1)NC(=O)CCCCC1CCCCC1)C(=O)O (stereo partly shown) [Compound 3.7k] | 1 | non-extracting | do not extract | – |
| CCCCCCCCCC(=O)N[C@@H](COCc1cn(CCO[C@@H]2OC(CO)[C@@H](O)C(O)C2O)nn1)C(=O)N[C@H](CCC(=O)O)C(=O)O (stereo partly shown) [Compound 3.7a] | 2 | non-extracting | do not extract | – |
| CCCCCCCCCCCC(=O)NC(CC(=O)NC(CCC(=O)O)C(=O)O)C(=O)NC(CCC(=O)O)C(=O)O (stereo not shown) [Compound 4.6b] (Lauroyl-Asp(Glu)-Glu-OH; configuration not given here) | 1 | – | – | not extract, or only very slightly extract, AcrB, unlike BmrA |
| CCCCCCCCCCCCCCCC(=O)NC(CC(=O)NC(CCC(=O)O)C(=O)O)C(=O)NC(CCC(=O)O)C(=O)O (stereo not shown) [Compound 4.6d] (Palmitoyl-Asp(Glu)-Glu-OH; configuration not given here) | 1 | extracting | extracting; also recorded: partially extract | not extract, or only very slightly extract, AcrB, unlike BmrA |
| CCCNC(=O)[C@H](CO)NCC(=O)O [Compound 1.4] | – | extracting | – | – |
| CCCCCCCCCCCCOP(=O)([O-])OCC[N+](C)(C)C [FC12, foscholine-12, reference compound] | – | effectively extracted | effectively extracted | – |
| CCCCCCCCCCCCCC(=O)NC(CC(=O)N[C@@H](CCC(=O)O)C(=O)O)C(=O)NC(CCC(=O)O)C(=O)O (stereo partly shown) [Compound 4.6c] (Myristoyl-[ξD](Glu)-[ξE]-OH) | 1 | – | extracting | – |
| CCCCCCCCCC(=O)NC(CC(=O)NC(CCC(=O)O)C(=O)O)C(=O)NC(CCC(=O)O)C(=O)O (stereo not shown) [Compound 4.6a] (Decanoyl-Asp(Glu)-Glu-OH; configuration not given here) | 1 | non-extracting | do not extract | – |
| CCCCCCCCCCCC(=O)N[C@@H](CO)C(=O)N[C@H](CCC(=O)O)C(=O)O [Compound 2.3e] (HELM PEPTIDE1{[CCCCCCCCCCCC(=O)[*:2]].S.[dE]}$$$$V2.0) | 1 | – | extracting | – |
| CCCCCCCCCC(=O)NC(CC(=O)O)C(=O)NC(CCC(=O)O)C(=O)O (stereo not drawn) [Compound 4.5a] (Decanoyl-Asp-Glu-OH; configuration not given here) | 3 | non-extracting | partially extract | – |
| CCCCCCCCCCCCCC(=O)N[C@@H](CO)C(=O)N[C@H](CCC(=O)O)C(=O)O [Compound 2.3a] (HELM PEPTIDE1{[CCCCCCCCCCCCCC(=O)[*:2]].S.[dE]}$$$$V2.0) | 2 | extracting | extracting | – |
| CCCCCCCC(=O)N[C@@H](CO)C(=O)N[C@H](CCC(=O)O)C(=O)O [Compound 2.3b] (HELM PEPTIDE1{[CCCCCCCC(=O)[*:2]].S.[dE]}$$$$V2.0) | 5 | non-extracting | extracting | – |
| CCCCCCCCCCCCCCCC(=O)NC(CC(=O)O)C(=O)NC(CCC(=O)O)C(=O)O (stereo not drawn) [Compound 4.5d] (Palmitoyl-Asp-Glu-OH; configuration not given here) | 1 | extracting | extracting | – |
| CCCCCCCCCCCCOS(=O)(=O)[O-].[Na+] [SDS, sodium dodecyl sulfate, reference compound] | – | effectively extracted | effectively extracted | – |
| CCCCCCCCCCCCC(=O)N[C@@H](CO)C(=O)N[C@H](CCC(=O)O)C(=O)O [Compound 2.3f] | 0.8 | extracting | extracting | – |
| CCCNC(=O)[C@H](CO)N(CC(=O)O)CC(=O)O [Compound 1.5] | 2.5 | partially extracting | extracting | more effectively extract AcrB |
| CCCCCCCCCCCCCC(=O)NC(CC(=O)O)C(=O)NC(CCC(=O)O)C(=O)O (stereo not drawn) [Compound 4.5c] (Myristoyl-Asp-Glu-OH; configuration not given here) | 1.5 | partially extracting | extracting | – |
| CCCCCCCCCCCCCC(=O)N[C@@H](CO)C(=O)N[C@H](CCC(=O)O)C(=O)O [Compound 2.3g] (HELM PEPTIDE1{[CCCCCCCCCCCCCC(=O)[*:2]].S.[dE]}$$$$V2.0) | – | extracting | extracting | – |
| [2H]C([2H])([2H])C([2H])([2H])C([2H])([2H])C([2H])([2H])C([2H])([2H])C([2H])([2H])C([2H])([2H])C([2H])([2H])C([2H])([2H])C([2H])([2H])C([2H])([2H])C(=O)N[C@@H](CO)C(=O)N[C@H](CCC(=O)O)C(=O)O [Compound 2.3i] | – | extracting | extracting | – |
| triton X-100 [TX100, reference compound] | – | solubilize | solubilize | – |
